One series addresses T1, NPY-Y1 receptor (Homo sapiens, UniProt P25929).
T1 construct: SK-N-MC cells (expressing the human Y1 -receptor); endogenous in cells; host or cells: SK-N-MC (human cell line), whole cells in suspension
T1 sequence (P25929 1-384): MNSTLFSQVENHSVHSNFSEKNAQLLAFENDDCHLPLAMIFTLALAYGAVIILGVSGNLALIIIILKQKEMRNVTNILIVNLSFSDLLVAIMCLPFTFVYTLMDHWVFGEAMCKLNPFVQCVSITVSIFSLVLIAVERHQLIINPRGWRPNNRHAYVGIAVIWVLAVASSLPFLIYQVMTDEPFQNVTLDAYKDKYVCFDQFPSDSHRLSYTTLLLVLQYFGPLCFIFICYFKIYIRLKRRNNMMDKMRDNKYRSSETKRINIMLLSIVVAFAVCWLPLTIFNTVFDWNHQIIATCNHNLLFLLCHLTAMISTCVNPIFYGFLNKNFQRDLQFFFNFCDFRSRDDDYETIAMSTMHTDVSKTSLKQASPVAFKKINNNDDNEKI
Put plainly: Studies of binding with SK-N-MC cells (displacement of [^125 I]-Bolton-Hunter-NPY). The following applies: SK-N-MC cells expressing the human Y1-receptor, 3 hours at ambient temperature. Here is the method:
A. Studies of binding with SK-N-MC cells (expressing the human Y1 -receptor)
Incubation is ended by centrifuging (10 minutes at 3000×gand 4° C.). After washing once with PBS, the radioactivity of the pellet is measured in a gamma counter. […] The proportion of non-specific binding is defined as that radioactivity which is bound in the presence of 1 μM NPY. The IC50 values of the unlabelled test substances are determined graphically.

For another series, the system named is NPY activity. The series is described as follows: NPY-antagonism in vitro (isolated perfused rat kidney). The following applies: inhibition of NPY (1 μM bolus) induced pressure increase, 5 minute infusion of compound. How it is done:
B. NPY-antagonism in vitro
Male rats (CHbb: THOM, 300 to 350 g) are given heparin (100 IU, i.v.) and the animals are then killed by a blow to the back of the neck. The abdomen is opened along the centre of the body and the left kidney is removed after the insertion of catheters in the renal artery, renal vein and ureter. The isolated kidney is immediately perfused with a modified Krebs-Ringer solution having the following composition (4 ml/minute):
A mixture of 95% O2 /5% CO2 is passed through the solution which is kept at a temperature of 37° C. The perfusion pressure is measured continuously using a pressure gauge. After a 60 minute stabilisation period the perfusion rate is adjusted so as to obtain a perfusion pressure of approximately 100 mm Hg. After a further 30 minutes the experiment is started and NPY (1 μM) is administered as a bolus (0.1 ml) at 15 minute intervals until the pressure increase observed reaches a constant value. The compounds to be tested are given in the form of a continuous infusion over a period of 5 minutes and then NPY is injected. After a 30 minute wash-out period the next highest concentration of test substance is investigated. 3 to 5 different concentrations of the particular compound are tested on each occasion. Concentration/activity curves can be obtained by plotting the percentage inhibition of the NPY activity against the logarithm of the concentration (mol/l) of the compound.

The subject of series [1] is NPY-induced blood pressure effects. The series is described as follows: In vivo NPY-antagonism (pithed rats). The following applies: Rattus norvegicus, iv, 1 min, inhibition of increase in diastolic blood pressure by NPY (10 μg/kg, i.v.), NPY given one minute after test substance, read-out: pID50 (the source's name) (converted). Here is the method:
C. In vivo NPY-antagonism
Male rats of normal blood pressure (Chbb:THOM, 300 to 350 g) are anaesthetised with sodium hexobarbital (150 mg/kg, i.p.). After intubation of the trachea the animals are pithed by introducing a blunt needle through the eye into the spinal bone marrow channel. The animals are ventilated with oxygen-rich ambient air using a respiratory pump (20 strokes/minute). A cannula is inserted in the left carotid artery and the arterial blood pressure is measured using a pressure gauge (Braun Melsungen Combitrans) connected to a recording device. For injection purposes a catheter is placed in the left jugular vein through which heparin is administered (200 IU/kg, i.v.). After the blood pressure has been stabilised, the animals are given 2 bolus injections of NPY (10 μg/kg, i.v.) at intervals of 15 minutes. The average increase in diastolic blood pressure is taken as the reference value (=100%). The test substances are injected in increasing doses (4 to 6 doses) at intervals of 15 minutes. One minute after administration of the test substance, NPY is administered.
The antagonistic effect of the test substances is determined by plotting the percentage inhibition of the NPY-induced blood pressure effects against the logarithm of the concentration of active substance.

These results are taken from patent US5807875A, “Amino acid derivatives, pharmaceutical compositions containing these compounds and processes for preparing them” (Dr. Karl Thomae GmbH, priority 1993, dated 1998).

One may read the IC50 as the concentration needed to halve the response being measured. The low end stands for higher potency, the high end for lower potency.

`N=C(N)c1cccc(CC(NC(=O)C(c2ccccc2)c2ccccc2)C(=O)NCc2ccc(O)cc2)c1` (stereo not drawn) [F] had a concentration for half-maximal inhibition (IC50) on NPY-Y1 receptor of 11.3 nM. The same molecule displayed a pIC50 in the series with NPY activity of 7.70 mol/l. Besides, the ED50 in series [1] is 0.151 µmol/kg.

`Cc1cc(CNC(=O)C(CCCNC(=N)N)NC(=O)C(c2ccccc2)c2ccccc2)ccc1O` (stereo not drawn) [E]: at NPY-Y1 receptor, the IC50 came out at 10 nM.

The molecule `N=C(N)NCCC[C@@H](NC(=O)C(c1ccccc1)c1ccccc1)C(=O)NCc1ccc(CO)cc1` [D] showed an IC50 on NPY-Y1 receptor of 13.5 nM.

Molecule `COc1ccc(CNC(=O)C(CCCNC(=N)N)NC(=O)C(c2ccccc2)c2ccccc2)cc1` (stereo not drawn) [K] returned an IC50 at NPY-Y1 receptor of 32 nM. In addition, the pIC50 in the series with NPY activity was found to be 6.70 mol/l. For the same molecule, the ED50 in series [1] is 0.331 µmol/kg.

`CC1(C)NC(=O)N(Cc2ccc(CNC(=O)[C@@H](CCCNC(=N)N)NC(=O)C(c3ccccc3)c3ccccc3)cc2)C1=O` [L] gave an IC50 at NPY-Y1 receptor of 26.8 nM.

As to `O=C(NCc1ccc(O)cc1)C(CCCNc1ncc[nH]1)NC(=O)C(c1ccccc1)c1ccccc1` (stereo not drawn) [H], the IC50 on NPY-Y1 receptor worked out at 18 nM.

Molecule `N=C(N)NCCC[C@@H](NC(=O)C(c1ccccc1)c1ccccc1)C(=O)NCc1ccc(CCO)cc1` [B] displayed an IC50 on NPY-Y1 receptor of 7.7 nM.

On to `CN(Cc1ccc(O)cc1)C(=O)[C@@H](CCCNC(=N)N)NC(=O)C(c1ccccc1)c1ccccc1` [G], for which the IC50 on NPY-Y1 receptor came out at 25.3 nM.

Consider `O=C(Nc1ccc2ccccc2c1)NC(CCCNc1ncc[nH]1)C(=O)NCc1ccc(O)cc1` (stereo not drawn) [N], for which, at NPY-Y1 receptor, the IC50 worked out at 85.5 nM.

Consider `O=C(NCc1ccc(O)cc1)C(Cc1ccc(C2=NCCN2)cc1)NC(=O)C(c1ccccc1)c1ccccc1` (stereo not drawn) [O], for which the IC50 on NPY-Y1 receptor worked out at 207 nM.

Turning to `N=C(N)CCCCC(NC(=O)C(c1ccccc1)c1ccccc1)C(=O)NCc1ccc(O)cc1` (stereo not drawn) [P], the IC50 on NPY-Y1 receptor worked out at 39 nM.

`N=C(N)NCCC[C@@H](NC(=O)C(c1ccccc1)c1ccccc1)C(=O)NCc1ccc(CN)cc1.O=C(O)C(F)(F)F.O=C(O)C(F)(F)F` [Example 128, (R)-N-[[4-(Aminomethyl)phenyl]methyl]-N^2-(diphenylacetyl)-argininamide-bis-(trifluoroacetate)]: in the series “Solubility” (dichloromethane), the solubility in dichloromethane entry is “readily soluble”. The solubility in dimethylsulphoxide result in “Solubility” (dimethylsulphoxide) is listed as “readily soluble”. Further, in the series “Solubility” (methanol), the solubility in methanol result is “readily soluble”. Moreover, in the series “Solubility” (water), the solubility in water entry is “readily soluble”.

At NPY-Y1 receptor, `N=C(N)NCCC[C@@H](NC(=O)C(c1ccc(Br)cc1)c1ccc(Br)cc1)C(=O)NCc1ccc(O)cc1` [A] had an IC50 of 1.8 nM.

`O=C(NC(CCCNc1ncc[nH]1)C(=O)NCc1ccc(O)cc1)c1ccc2ccccc2c1` (stereo not drawn) [M] had an IC50 on NPY-Y1 receptor of 80.5 nM.

`N=C(N)NCCC[C@@H](NC(=O)C(c1ccccc1)c1ccccc1)C(=O)NCc1ccc(O)cc1` [C] showed a pIC50 in the series on NPY activity of 7.15 mol/l. The ED50 in series [1] was 0.186 µmol/kg.

At NPY-Y1 receptor, `Cc1cc(CNC(=O)C(CCCNC(=N)N)NC(=O)C(c2ccccc2)c2ccccc2)cc(C)c1O` (stereo not drawn) [I] gave an IC50 of 26 nM.
